≈ marks a conversion by molar mass, not a printed value.
Experiments:
Type in all cases: cell-based
[1] = system: DU145 (prostate) human tumor cell line; test: three day MTT cytotoxicity assay, DU145 prostate; conditions: 72 hours; for IC50 (μg/mL) of Flavoperereine derivatives in human tumor cell lines, DU145 Prostate: DU145 prostate cells
Experimental: (§1) A number of the Flavopereirine derivatives were tested for cytotoxicity against nine (9) human tumor cell lines. Briefly, a three day MTT cytotoxicity assay was performed, which is based on the principle of uptake of MTT (3-(4,5-dimethylthiazol-2-yl)-2,5-diphenyl tetrazolium bromide), a tetrazolium salt, by the metabolically active cells where it is metabolized by active mitochondria into a blue colored formazan product that is read spectrophotometrically. MIT was dissolved in phosphate buffered saline with a pH of 7.4 to obtain an MTT concentration of 5 mg/ml; the resulting mixture was filtered through a 0.22-micron filter to sterilize and remove a small amount of insoluble residue. For each type of tumor cell, 10000 to 15000 cells were seeded in a 96-well culture plate and incubated with the individual Flavopereirine derivatives in concentration ranging from 1-20 μg/ml in a CO2 incubator for a total of 72 hours. Control cells not treated with the Flavopereirine derivatives were similarly incubated. The assay was terminated by adding 100 μg (20 μl) of MTT to each well, then incubating for additional one hour, and finally adding 50 μl of 10% SDS-0.01N HCl to each well to lyse the cells and dissolve formazan. After incubating for one hour, the plate was read spectrophotometrically at 540 nm and the percentage of cytotoxicity calculated using the following formula:
(§2) Cytotoxicity percentage=100×[1-(X/R1)], where X=(absorbance of treated sample at 540 nm)−(absorbance of blank at 540 nm) R1=absorbance of control sample at 540 nm.
(§3) The IC50 Values of the cytotoxicity defined as the concentration at which 50% of the cells are killed in vitro was calculated for each cell line treated with each of the Flavopereirine derivatives.
(§4) The cell lines are ovary (PA-1), breast (MCF-7), prostate (DU145), pancreas (MiaPaCa.2), oral cavity (KB), lung (L132), colon (SW620), and larynx (HeP2).

[2] = system: SW620 (colon) human tumor cell line; test: three day MTT cytotoxicity assay, SW620 colon; conditions: 72 hours; for IC50 (μg/mL) of Flavoperereine derivatives in human tumor cell lines, SW620 Colon: SW620 colon cells
Experimental: as §1, §2, §3, §4

[3] = system: MCF7 (breast) human tumor cell line; test: three day MTT cytotoxicity assay, MCF7 breast; conditions: MCF7 breast cells, 72 hours
Experimental: as §1, §2, §3, §4

[4] = system: PA1 (ovary) human tumor cell line; test: three day MTT cytotoxicity assay, PA1 ovarian; conditions: PA1 ovarian cells, 72 hours
Experimental: as §1, §2, §3, §4

[5] = system: MiaPaca2 (pancreas) human tumor cell line; test: three day MTT cytotoxicity assay, MiaPaca2 pancreas; conditions: 72 hours; for IC50 (μg/mL) of Flavoperereine derivatives in human tumor cell lines, MiaPaca2 Pancreas: MiaPaca2 pancreas cells
Experimental: as §1, §2, §3, §4

[6] = system: KB (oral cavity) human tumor cell line; test: three day MTT cytotoxicity assay, KB oral; conditions: KB oral cells, 72 hours
Experimental: as §1, §2, §3, §4

[7] = system: Hep2 (larynx) human tumor cell line; test: three day MTT cytotoxicity assay, Hep2 larynx; conditions: 72 hours; for IC50 (μg/mL) of Flavoperereine derivatives in human tumor cell lines, Hep2 Larynx: Hep2 larynx cells
Experimental: as §1, §2, §3, §4

[8] = system: L132 (lung) human tumor cell line; test: three day MTT cytotoxicity assay, L132 lung; conditions: L132 lung cells, 72 hours
Experimental: as §1, §2, §3, §4

[9] = system: ECV-304 (endothelial) cell line; test: three day MTT cytotoxicity assay, ECV-304 endothelial; conditions: ECV-304 endothelial cells, 72 hours
Experimental: as §1, §2, §3

| Compound | IC50 (μg/mL) of Flavoperereine derivatives in human tumor cell lines, DU145 Prostate [1] | IC50 (μg/mL) of Flavoperereine derivatives in human tumor cell lines, SW620 Colon [2] | IC50 (μg/mL) of Flavoperereine derivatives in human tumor cell lines, MCF7 Breast [3] | IC50 (μg/mL) of Flavoperereine derivatives in human tumor cell lines, PA1 Ovarian [4] | IC50 (μg/mL) of Flavoperereine derivatives in human tumor cell lines, MiaPaca2 Pancreas [5] | IC50 (μg/mL) of Flavoperereine derivatives in human tumor cell lines, KB Oral [6] | IC50 (μg/mL) of Flavoperereine derivatives in human tumor cell lines, Hep2 Larynx [7] | IC50 (μg/mL) of Flavoperereine derivatives in human tumor cell lines, L132 Lung [8] | IC50 ([1]; Homo sapiens, DU-145, DU145 prostate cells, read-out: IC50 (μg/mL) of Flavoperereine derivatives in human tumor cell lines, DU145 Prostate) | IC50 ([2]; Homo sapiens, SW-620, SW620 colon cells, read-out: IC50 (μg/mL) of Flavoperereine derivatives in human tumor cell lines, SW620 Colon) | IC50 ([3]; Homo sapiens, read-out: IC50 (μg/mL) of Flavoperereine derivatives in human tumor cell lines, MCF7 Breast) | IC50 ([4]; Homo sapiens, read-out: IC50 (μg/mL) of Flavoperereine derivatives in human tumor cell lines, PA1 Ovarian) | IC50 ([9]; Homo sapiens, read-out: IC50 (μg/mL) of Flavoperereine derivatives in human tumor cell lines, ECV-304 Endothelial) | IC50 ([5]; Homo sapiens, MIA PaCa-2, MiaPaca2 pancreas cells, read-out: IC50 (μg/mL) of Flavoperereine derivatives in human tumor cell lines, MiaPaca2 Pancreas) | IC50 ([6]; Homo sapiens, read-out: IC50 (μg/mL) of Flavoperereine derivatives in human tumor cell lines, KB Oral) | IC50 ([7]; Homo sapiens, HEp-2, Hep2 larynx cells, read-out: IC50 (μg/mL) of Flavoperereine derivatives in human tumor cell lines, Hep2 Larynx) | IC50 ([8]; Homo sapiens, read-out: IC50 (μg/mL) of Flavoperereine derivatives in human tumor cell lines, L132 Lung) | IC50 (μg/mL) of Flavoperereine derivatives in human tumor cell lines, ECV-304 Endothelial [9] |
| --- | --- | --- | --- | --- | --- | --- | --- | --- | --- | --- | --- | --- | --- | --- | --- | --- | --- | --- |
| Oc1ccc2[n+](c1)CCc1c-2[nH]c2ccccc12 [Compound 22, 3-hydroxy-6,7-dihydroindolo[2,3-a]quinolizinium] | >100 µg/mL | >100 µg/mL | >100 µg/mL | >100 µg/mL | >100 µg/mL | >100 µg/mL | >100 µg/mL | >100 µg/mL |  |  |  |  |  |  |  |  |  |  |
| C1=CC2=C3N=c4ccccc4=C3CCN2C=C1OCc1ccccc1 [Compound 23, 3-benzyloxy-6,7-dihydroindolo[2,3-a]quinolizine] |  |  |  |  |  |  |  |  | 10 µg/mL (≈ 30.6 µM) | 11 µg/mL (≈ 33.7 µM) | 5 µg/mL (≈ 15.3 µM) | 31 µg/mL (≈ 95 µM) | 16 µg/mL (≈ 49 µM) | 10 µg/mL (≈ 30.6 µM) | 12 µg/mL (≈ 36.8 µM) | 17 µg/mL (≈ 52.1 µM) | 20 µg/mL (≈ 61.3 µM) |  |
| CCOc1ccc2[n+](c1)CCc1c-2[nH]c2ccccc12 [Compound 24, 3-ethoxy-6,7-dihydroindolo[2,3-a]quinolizinium] |  | 30 µg/mL |  | 38 µg/mL |  | 50 µg/mL | 89 µg/mL | 20 µg/mL |  |  |  |  |  |  |  |  |  | 64 µg/mL |
| Fc1ccc(COc2ccc3[n+](c2)CCc2c-3[nH]c3ccccc23)cc1.[O-][Cl+3]([O-])([O-])[O-] [Compound 25] | 41 µg/mL | 44 µg/mL | 34 µg/mL | 36 µg/mL | 30 µg/mL | 8 µg/mL | 44 µg/mL | 9 µg/mL |  |  |  |  |  |  |  |  |  | 24 µg/mL |
| Brc1ccc(COc2ccc3[n+](c2)CCc2c-3[nH]c3ccccc23)cc1.[Br-] [Compound 26] | 7.5 µg/mL | >100 µg/mL | >100 µg/mL | >100 µg/mL | 9.5 µg/mL | 6 µg/mL | 24 µg/mL |  |  |  |  |  |  |  |  |  |  | 12 µg/mL |
| CCCCOc1ccc2[n+](c1)CCc1c-2[nH]c2ccccc12.[Br-] [Compound 27] | 9 µg/mL | 4 µg/mL | 6 µg/mL | 4.7 µg/mL | 7.5 µg/mL | 7 µg/mL | 5 µg/mL |  |  |  |  |  |  |  |  |  |  |  |
| c1ccc(COc2ccc3c4[nH]c5ccccc5c4cc[n+]3c2)cc1 [Compound 28, 3-benzyloxyindolo[2,3-a]quinolizinium] | 2 µg/mL | <1 µg/mL | 5 µg/mL | 1.5 µg/mL | 2 µg/mL | 2 µg/mL | 1.5 µg/mL | 2 µg/mL |  |  |  |  |  |  |  |  |  | 4 µg/mL |
| CCOc1ccc2c3[nH]c4ccccc4c3cc[n+]2c1 [Compound 29, 3-ethoxyindolor-2,3-alquinolizinium] |  | 10 µg/mL |  | 5 µg/mL |  | 10 µg/mL | 8.0 µg/mL | 15 µg/mL |  |  |  |  |  |  |  |  |  | 4 µg/mL |
| BrCCCOc1ccc2c3[nH]c4ccccc4c3cc[n+]2c1.[O-][Cl+3]([O-])([O-])[O-] [Compound 30] | 7.5 µg/mL | 6 µg/mL | 6 µg/mL | 2 µg/mL | 4 µg/mL | 10 µg/mL | 1.5 µg/mL | 10 µg/mL |  |  |  |  |  |  |  |  |  | 6 µg/mL |
| [Br-].c1ccc(COc2ccc3c4[nH]c5ccccc5c4cc[n+]3c2)cc1 [Compound 31] | 4.5 µg/mL | 5 µg/mL | 4 µg/mL | 4 µg/mL | <1 µg/mL | <1 µg/mL | 3 µg/mL | 4.5 µg/mL |  |  |  |  |  |  |  |  |  | 13.5 µg/mL |
| Fc1ccc(COc2ccc3c4[nH]c5ccccc5c4cc[n+]3c2)cc1.[O-][Cl+3]([O-])([O-])[O-] [Compound 32] | 2 µg/mL | 5 µg/mL | <1 µg/mL | 6 µg/mL | <1 µg/mL | <1 µg/mL | 4 µg/mL | <1 µg/mL |  |  |  |  |  |  |  |  |  | 24 µg/mL |
| CCCCOc1ccc2c3[nH]c4ccccc4c3cc[n+]2c1.[Br-] [Compound 33] | 5 µg/mL | 1.4 µg/mL | 3 µg/mL | <1 µg/mL | 2 µg/mL | 1.6 µg/mL | 2.4 µg/mL |  |  |  |  |  |  |  |  |  |  |  |

From patent publication US20100256177A1, “Flavopereirine derivatives for cancer therapy” (priority 2004, published 2010)
